From patent US11000033B2, “Ketone or oxime compound, and herbicide” (NISSAN CHEMICAL CORPORATION, priority 2014, dated 2021)

Tests used:
Assay type in all cases: in vivo
[1] = tested on: directly sowed rice plant; assay: Test Example 3: effect on crop by foliage application, Wagner pot (symbol b); settings: application herbicide amount 320 g/ha; for b (directly sowed rice plant) effect on crop grade: Table 24
Procedure, shortened: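 Steps: fill a 1/10000-are Wagner pot with alluvial soil; add water and mix to submerge at 0.1–0.5 cm depth; sow rice plus Echinochloa crus-galli var. crus-galli, Leptochloa chinensis and Cyperus difformis; grow in a 25–30 °C greenhouse.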

corn = assay: Test Example 5: effect on crop by foliage application, plastic box (symbol c); settings: 320 g/ha, 3 weeks after application
Procedure, shortened: (§1)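 Seeds were sown in spots in sterilized diluvial soil held in a plastic box 21 cm × 13 cm × 7 cm deep, covered with about 1.5 cm of soil, and grown in a greenhouse at 25° C. to 30° C.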

Digitaria ciliaris = assay: Test Example 4: herbicidal effect by soil treatment (symbol F); settings: for F: Digitaria ciliaris, herbicidal effect grade: 320 g/ha; for Herbicidal effect grade, F: Digitaria ciliaris: application herbicide amount 320 g/ha
Procedure, shortened: (§2)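 Seeds were sown in sterilized diluvial soil, covered with about 1.5 cm of soil, and the soil surface was sprayed with a water-diluted emulsion of the compound at a predetermined rate. Plants grew in a greenhouse at 25° C. to 30° C.; effects were scored visually 3 weeks after application.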

Monochoria vaginalis = assay: Test Example 1: herbicidal activity, application before weed generation in submerged conditions (symbol C); settings: application herbicide amount 320 g/ha
Procedure, shortened: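 Ratings (5: ≥90%, near complete withering; 4: 70–<90%; 3: 40–<70%; 2: 20–<40%; 1: 5–<20%; 0: ≤5%) were assigned 3 weeks after the diluted emulsion was applied to the water surface of freshly sown, submerged pots.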

beet = assay: Test Example 5: effect on crop by foliage application, plastic box (symbol f); settings: 320 g/ha, 3 weeks after application
Procedure, shortened: as §1

transplanted rice plant = assay: Test Example 1: effect on crop, application before weed generation in submerged conditions (symbol a); settings: application herbicide amount 320 g/ha
Procedure, shortened: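 Alluvial soil pots flooded to 4 cm water, sown with Echinochloa oryzacola, Scirpus juncoides and Monochoria vaginalis, then transplanted with 2.5 leaf stage rice seedlings; pre-emergence application. Greenhouse 25° C. to 30° C.; scored 0–5 by herbicidal ratio 3 weeks after application.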

Apera spica-venti = assay: Test Example 5: herbicidal effect by foliage application, plastic box (symbol L); settings: 320 g/ha, 3 weeks after application
Procedure, shortened: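 Sowing in sterilized diluvial soil, 14 days' greenhouse growth at 25° C. to 30° C., then uniform small-sprayer foliar application of aqueous emulsion dilution; plants scored three weeks afterwards.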

Abutilon theophrasti = assay: Test Example 4: herbicidal effect by soil treatment (symbol M); settings: for M: Abutilon theophrasti, herbicidal effect grade: 320 g/ha; for Herbicidal effect grade, M: Abutilon theophrasti: application herbicide amount 320 g/ha
Procedure, shortened: as §2

rapeseed = assay: Test Example 4: effect on crop by soil treatment (symbol g); settings: for g: rapeseed, effect grade on crop: 320 g/ha; for Effect on crop grade, g: rapeseed: application herbicide amount 320 g/ha
Procedure, shortened: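 The test used sterilized diluvial soil. Seed was set down in spots and overlaid with about 1.5 cm of soil before growth in a greenhouse kept at 25° C. to 30° C.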

Amaranthus retroflexus = assay: Test Example 4: herbicidal effect by soil treatment (symbol N); settings: for N: Amaranthus retroflexus, herbicidal effect grade: 320 g/ha; for Herbicidal effect grade, N: Amaranthus retroflexus: application herbicide amount 320 g/ha
Procedure, shortened: as §2

Leptochloa chinensis = assay: Test Example 3: herbicidal effect by foliage application, Wagner pot (symbol D); settings: application herbicide amount 320 g/ha; for D (Leptochloa chinensis) herbicidal effect grade: Table 24
Procedure, shortened: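 Weeds and rice were sown in alluvial soil under 0.1–0.5 cm of standing water and grown for 14 days in a 25–30 °C greenhouse. An emulsion of the compound, diluted in water to a set dose, was sprayed evenly onto the foliage. Effect was scored against fixed criteria 3 weeks after treatment.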

wheat = assay: Test Example 5: effect on crop by foliage application, plastic box (symbol e); settings: 320 g/ha, 3 weeks after application
Procedure, shortened: as §1

Row | Structure (SMILES) | effect on crop b (directly sowed rice plant), grade 0-5 [1] | c: corn, effect on crop (criteria 0-5) (corn) | F: Digitaria ciliaris, herbicidal effect grade (Digitaria ciliaris) | Herbicidal effect grade, C: Monochoria vaginalis (Monochoria vaginalis) | f: beet, effect on crop (criteria 0-5) (beet) | Effect grade on crop, a: transplanted rice plant (transplanted rice plant) | L: Apera spica-venti, herbicidal effect (criteria 0-5) (Apera spica-venti) | M: Abutilon theophrasti, herbicidal effect grade (Abutilon theophrasti) | g: rapeseed, effect grade on crop (rapeseed) | N: Amaranthus retroflexus, herbicidal effect grade (Amaranthus retroflexus) | herbicidal effect on D (Leptochloa chinensis), grade 0-5 (Leptochloa chinensis) | e: wheat, effect on crop (criteria 0-5) (wheat) | b (directly sowed rice plant) effect on crop grade [1] | c: corn, effect on crop grade (corn) | Herbicidal effect grade, F: Digitaria ciliaris (Digitaria ciliaris) | C (Monochoria vaginalis) herbicidal effect grade (Monochoria vaginalis) | f: beet, effect on crop grade (beet) | a (transplanted rice plant) effect on crop grade (transplanted rice plant) | L: Apera spica-venti, herbicidal effect grade (Apera spica-venti) | Herbicidal effect grade, M: Abutilon theophrasti (Abutilon theophrasti) | also measured
1 | CON=C(C)CC1CC(OC(=O)c2cnoc2C2CC2)=C(c2c(C)cc(C)cc2C)C1=O (stereo not drawn) [1-103] | 5 (Herbicidal ratio of 90% or more (almost completely withered)) | 5 (Herbicidal ratio of 90% or more (almost completely withered)) | 5 (Herbicidal ratio of 90% or more (almost completely withered)) | 1 (Herbicidal ratio of 5% or higher and lower than 20%) | 0 (Herbicidal ratio of 5% or lower (almost no effect)) | 5 (Herbicidal ratio of 90% or more (almost completely withered)) | 5 (Herbicidal ratio of 90% or more (almost completely withered)) | 5 (Herbicidal ratio of 90% or more (almost completely withered)) | 3 (Herbicidal ratio of 40% or higher and lower than 70%) | 5 (Herbicidal ratio of 90% or more (almost completely withered)) | 5 (Herbicidal ratio of 90% or more (almost completely withered)) | 5 (Herbicidal ratio of 90% or more (almost completely withered)) | – | – | – | – | – | – | – | – | –
2 | Cc1cc(Br)cc(C)c1C1=C(O)CC(CC(=O)C2CC2)C1=O (racemic) [10-004] | – | – | – | – | – | – | – | – | – | – | – | – | 5 (Herbicidal ratio of 90% or more (almost completely withered)) | 5 (Herbicidal ratio of 90% or more (almost completely withered)) | 5 (Herbicidal ratio of 90% or more (almost completely withered)) | 0 (Herbicidal ratio of 5% or lower (almost no effect)) | 0 (Herbicidal ratio of 5% or lower (almost no effect)) | 5 (Herbicidal ratio of 90% or more (almost completely withered)) | 5 (Herbicidal ratio of 90% or more (almost completely withered)) | 0 (Herbicidal ratio of 5% or lower (almost no effect)) | Effect on crop grade, g: rapeseed (rapeseed): 0 (Herbicidal ratio of 5% or lower (almost no effect)); Herbicidal effect grade, N: Amaranthus retroflexus (Amaranthus retroflexus): 0 (Herbicidal ratio of 5% or lower (almost no effect)); D (Leptochloa chinensis) herbicidal effect grade (Leptochloa chinensis): 5 (Herbicidal ratio of 90% or more (almost completely withered)); e: wheat, effect on crop grade (wheat): 4 (Herbicidal ratio of 70% or higher and lower than 90%)
3 | CON=C(C)CC1CC(OC(=O)N(C)C)=C(c2c(C)cc(C)cc2C)C1=O (stereo not drawn) [1-108] | 5 (Herbicidal ratio of 90% or more (almost completely withered)) | 5 (Herbicidal ratio of 90% or more (almost completely withered)) | 5 (Herbicidal ratio of 90% or more (almost completely withered)) | 3 (Herbicidal ratio of 40% or higher and lower than 70%) | 1 (Herbicidal ratio of 5% or higher and lower than 20%) | 5 (Herbicidal ratio of 90% or more (almost completely withered)) | 5 (Herbicidal ratio of 90% or more (almost completely withered)) | 4 (Herbicidal ratio of 70% or higher and lower than 90%) | 4 (Herbicidal ratio of 70% or higher and lower than 90%) | 0 (Herbicidal ratio of 5% or lower (almost no effect)) | 5 (Herbicidal ratio of 90% or more (almost completely withered)) | 3 (Herbicidal ratio of 40% or higher and lower than 70%) | – | – | – | – | – | – | – | – | –
4 | COC(=O)C(C(=O)C1CC1)C1CC(O)=C(c2c(C)cc(Br)cc2C)C1=O (mixture of isomers) [10-002] | – | – | – | – | – | – | – | – | – | – | – | – | 5 (Herbicidal ratio of 90% or more (almost completely withered)) | 5 (Herbicidal ratio of 90% or more (almost completely withered)) | 4 (Herbicidal ratio of 70% or higher and lower than 90%) | 0 (Herbicidal ratio of 5% or lower (almost no effect)) | 0 (Herbicidal ratio of 5% or lower (almost no effect)) | 1 (Herbicidal ratio of 5% or higher and lower than 20%) | 4 (Herbicidal ratio of 70% or higher and lower than 90%) | 0 (Herbicidal ratio of 5% or lower (almost no effect)) | Effect on crop grade, g: rapeseed (rapeseed): 0 (Herbicidal ratio of 5% or lower (almost no effect)); Herbicidal effect grade, N: Amaranthus retroflexus (Amaranthus retroflexus): 0 (Herbicidal ratio of 5% or lower (almost no effect)); D (Leptochloa chinensis) herbicidal effect grade (Leptochloa chinensis): 5 (Herbicidal ratio of 90% or more (almost completely withered)); e: wheat, effect on crop grade (wheat): 0 (Herbicidal ratio of 5% or lower (almost no effect))
5 | CON=C(C)CC1CC(OC(=O)C#C[Si](C)(C)C)=C(c2c(C)cc(C)cc2C)C1=O (stereo not drawn) [1-096] | 5 (Herbicidal ratio of 90% or more (almost completely withered)) | 5 (Herbicidal ratio of 90% or more (almost completely withered)) | 5 (Herbicidal ratio of 90% or more (almost completely withered)) | 0 (Herbicidal ratio of 5% or lower (almost no effect)) | 0 (Herbicidal ratio of 5% or lower (almost no effect)) | 5 (Herbicidal ratio of 90% or more (almost completely withered)) | 5 (Herbicidal ratio of 90% or more (almost completely withered)) | 4 (Herbicidal ratio of 70% or higher and lower than 90%) | 3 (Herbicidal ratio of 40% or higher and lower than 70%) | 4 (Herbicidal ratio of 70% or higher and lower than 90%) | 5 (Herbicidal ratio of 90% or more (almost completely withered)) | 5 (Herbicidal ratio of 90% or more (almost completely withered)) | – | – | – | – | – | – | – | – | –
